Experimental data taken from article PMC10528299, “Targeting FAK/PYK2 with SJP1602 for Anti-Tumor Activity in Triple-Negative Breast Cancer” (Current Issues in Molecular Biology, 2023).

Columns and labels:
Test in all cases: Eurofins kinase profiling
Type in all cases: biochemical
[1] = molecular target: T1, PI3 Kinase (p110a/p85a)(h) (Homo sapiens, UniProt P42336); conditions: read-out: residual kinase activity PI3 Kinase (p110a/p85a)(h)
T1 construct: purchased Eurofins KinaseProfiler
Experimental: (§1) The kinase profiling analysis was performed at Eurofins (Poitiers, France). A total of 110 kinase assays were carried out according to Eurofins’ standard protocols. For protein kinase assays, the kinase activity was measured using Eurofins’ KinaseProfiler radiometric assay. In this assay, a panel of kinases was incubated with the test compound SJP1602 at a concentration of 1 µM, and the kinase activity was determined using radiolabeled phosphate as a substrate. Lipid and atypical kinase assays were conducted using Eurofins’ homogeneous time-resolved fluorescence assay. The same panel of kinases was incubated with SJP1602 at a concentration of 1 µM, and the activity of lipid and atypical kinases was measured using this assay.

[2] = molecular target: T2, DDR2(h) (Homo sapiens, UniProt Q16832); conditions: read-out: residual kinase activity DDR2(h)
T2 construct: purchased Eurofins KinaseProfiler
T2 sequence (Q16832 22-855): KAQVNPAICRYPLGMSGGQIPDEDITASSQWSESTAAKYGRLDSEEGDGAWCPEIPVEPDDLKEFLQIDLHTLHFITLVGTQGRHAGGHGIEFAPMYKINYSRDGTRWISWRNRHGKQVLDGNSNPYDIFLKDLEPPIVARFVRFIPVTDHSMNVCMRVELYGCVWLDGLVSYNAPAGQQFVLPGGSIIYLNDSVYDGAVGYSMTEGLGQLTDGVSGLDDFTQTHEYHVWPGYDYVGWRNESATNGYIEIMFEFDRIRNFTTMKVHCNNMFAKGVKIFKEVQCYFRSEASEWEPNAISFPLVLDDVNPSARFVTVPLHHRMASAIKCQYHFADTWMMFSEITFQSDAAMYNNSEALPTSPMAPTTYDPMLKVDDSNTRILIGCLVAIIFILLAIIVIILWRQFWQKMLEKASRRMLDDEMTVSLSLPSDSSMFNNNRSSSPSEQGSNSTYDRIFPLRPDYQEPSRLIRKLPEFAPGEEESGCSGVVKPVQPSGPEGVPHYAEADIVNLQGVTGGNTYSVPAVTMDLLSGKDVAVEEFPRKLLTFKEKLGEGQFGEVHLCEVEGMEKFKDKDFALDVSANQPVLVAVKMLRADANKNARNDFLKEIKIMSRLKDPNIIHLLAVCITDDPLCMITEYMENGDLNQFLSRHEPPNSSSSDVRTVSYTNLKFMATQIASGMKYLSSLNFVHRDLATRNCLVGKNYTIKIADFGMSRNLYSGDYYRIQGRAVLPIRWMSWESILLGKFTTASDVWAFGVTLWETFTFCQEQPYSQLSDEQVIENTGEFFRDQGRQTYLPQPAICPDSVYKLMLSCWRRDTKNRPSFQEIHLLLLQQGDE
Experimental: as §1

[3] = molecular target: T3, Abl(h) (Homo sapiens, UniProt P00519); conditions: read-out: residual kinase activity Abl(h)
T3 construct: purchased Eurofins KinaseProfiler
Experimental: as §1

[4] = molecular target: T4, ARK5(h) (Homo sapiens, UniProt O60285); conditions: read-out: residual kinase activity ARK5(h)
T4 construct: purchased Eurofins KinaseProfiler
T4 sequence (O60285 1-661): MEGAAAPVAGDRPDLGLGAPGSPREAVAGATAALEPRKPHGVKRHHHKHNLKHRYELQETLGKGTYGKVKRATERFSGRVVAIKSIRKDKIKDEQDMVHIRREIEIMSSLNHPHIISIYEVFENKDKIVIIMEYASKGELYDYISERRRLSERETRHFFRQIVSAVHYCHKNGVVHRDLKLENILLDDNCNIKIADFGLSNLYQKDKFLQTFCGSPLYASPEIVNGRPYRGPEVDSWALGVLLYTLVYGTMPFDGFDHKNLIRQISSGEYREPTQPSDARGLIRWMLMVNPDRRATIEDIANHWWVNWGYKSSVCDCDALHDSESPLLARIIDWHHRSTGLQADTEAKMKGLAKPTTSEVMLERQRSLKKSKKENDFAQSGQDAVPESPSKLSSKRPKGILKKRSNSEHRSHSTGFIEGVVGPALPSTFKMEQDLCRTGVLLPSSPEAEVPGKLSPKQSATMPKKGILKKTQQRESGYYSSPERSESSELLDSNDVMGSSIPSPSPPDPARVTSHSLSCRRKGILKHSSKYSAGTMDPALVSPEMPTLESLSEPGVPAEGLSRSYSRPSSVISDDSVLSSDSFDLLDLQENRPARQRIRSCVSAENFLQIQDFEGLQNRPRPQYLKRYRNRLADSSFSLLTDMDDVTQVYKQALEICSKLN
Experimental: as §1

[5] = molecular target: T5, PI3 Kinase (p110a(E542K)/p85a)(h) (Homo sapiens, UniProt P42336, E542K); conditions: read-out: residual kinase activity PI3 Kinase (p110a(E542K)/p85a)(h)
T5 construct: purchased Eurofins KinaseProfiler
Experimental: as §1

[6] = molecular target: T6, PKCε(h) (Homo sapiens, UniProt Q02156); conditions: read-out: residual kinase activity PKCε(h)
T6 construct: purchased Eurofins KinaseProfiler
T6 sequence (Q02156 1-737): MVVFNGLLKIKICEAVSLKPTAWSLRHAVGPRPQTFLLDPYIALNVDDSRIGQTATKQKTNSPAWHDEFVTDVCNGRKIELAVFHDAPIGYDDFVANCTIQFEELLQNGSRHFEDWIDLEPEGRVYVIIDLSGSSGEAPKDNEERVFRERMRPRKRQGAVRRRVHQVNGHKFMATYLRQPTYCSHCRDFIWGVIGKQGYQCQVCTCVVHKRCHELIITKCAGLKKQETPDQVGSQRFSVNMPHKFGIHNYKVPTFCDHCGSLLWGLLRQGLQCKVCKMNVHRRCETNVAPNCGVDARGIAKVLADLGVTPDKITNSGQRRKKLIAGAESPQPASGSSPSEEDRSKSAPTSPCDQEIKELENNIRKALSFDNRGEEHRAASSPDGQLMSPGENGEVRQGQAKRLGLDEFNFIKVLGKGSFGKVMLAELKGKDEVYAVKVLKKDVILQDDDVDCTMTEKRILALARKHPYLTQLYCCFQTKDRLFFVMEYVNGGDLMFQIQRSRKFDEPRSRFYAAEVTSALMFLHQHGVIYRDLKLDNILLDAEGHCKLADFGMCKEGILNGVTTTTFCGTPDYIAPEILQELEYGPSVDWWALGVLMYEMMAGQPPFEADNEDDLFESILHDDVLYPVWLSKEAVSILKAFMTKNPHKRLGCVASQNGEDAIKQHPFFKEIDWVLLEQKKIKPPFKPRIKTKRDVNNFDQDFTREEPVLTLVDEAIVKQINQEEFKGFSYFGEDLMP
Experimental: as §1

T5 sequence (P42336 whole entry E542K): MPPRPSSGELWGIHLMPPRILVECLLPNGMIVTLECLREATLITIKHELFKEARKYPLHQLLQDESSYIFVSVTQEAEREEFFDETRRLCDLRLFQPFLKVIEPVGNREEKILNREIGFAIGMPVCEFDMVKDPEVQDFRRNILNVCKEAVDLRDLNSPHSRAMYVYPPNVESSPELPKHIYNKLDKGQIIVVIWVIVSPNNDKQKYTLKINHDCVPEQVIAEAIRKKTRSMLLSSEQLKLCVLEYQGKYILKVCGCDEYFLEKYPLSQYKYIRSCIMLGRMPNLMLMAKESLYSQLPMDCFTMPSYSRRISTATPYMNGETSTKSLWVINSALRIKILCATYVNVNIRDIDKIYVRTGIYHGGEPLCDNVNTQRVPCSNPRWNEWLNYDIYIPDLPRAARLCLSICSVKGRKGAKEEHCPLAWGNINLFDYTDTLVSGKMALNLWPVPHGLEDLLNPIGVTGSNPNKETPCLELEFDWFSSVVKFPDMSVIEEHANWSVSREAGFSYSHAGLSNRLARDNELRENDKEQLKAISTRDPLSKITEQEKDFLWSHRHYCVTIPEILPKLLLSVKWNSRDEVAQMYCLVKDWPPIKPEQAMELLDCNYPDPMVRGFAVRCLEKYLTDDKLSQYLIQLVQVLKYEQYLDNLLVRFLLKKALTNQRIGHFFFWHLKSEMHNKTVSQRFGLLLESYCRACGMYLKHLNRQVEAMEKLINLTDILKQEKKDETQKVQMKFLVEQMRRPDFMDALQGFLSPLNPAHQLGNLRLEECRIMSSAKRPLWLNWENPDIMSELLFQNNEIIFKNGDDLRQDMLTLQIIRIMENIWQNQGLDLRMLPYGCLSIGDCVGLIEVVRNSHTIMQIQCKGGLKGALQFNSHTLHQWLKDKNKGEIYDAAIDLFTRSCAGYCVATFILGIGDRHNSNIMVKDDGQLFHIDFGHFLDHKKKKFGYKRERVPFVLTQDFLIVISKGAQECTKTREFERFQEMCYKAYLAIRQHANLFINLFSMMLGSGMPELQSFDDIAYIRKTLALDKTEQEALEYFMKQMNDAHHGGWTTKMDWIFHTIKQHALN
T5 sequence (P27986 whole entry partner): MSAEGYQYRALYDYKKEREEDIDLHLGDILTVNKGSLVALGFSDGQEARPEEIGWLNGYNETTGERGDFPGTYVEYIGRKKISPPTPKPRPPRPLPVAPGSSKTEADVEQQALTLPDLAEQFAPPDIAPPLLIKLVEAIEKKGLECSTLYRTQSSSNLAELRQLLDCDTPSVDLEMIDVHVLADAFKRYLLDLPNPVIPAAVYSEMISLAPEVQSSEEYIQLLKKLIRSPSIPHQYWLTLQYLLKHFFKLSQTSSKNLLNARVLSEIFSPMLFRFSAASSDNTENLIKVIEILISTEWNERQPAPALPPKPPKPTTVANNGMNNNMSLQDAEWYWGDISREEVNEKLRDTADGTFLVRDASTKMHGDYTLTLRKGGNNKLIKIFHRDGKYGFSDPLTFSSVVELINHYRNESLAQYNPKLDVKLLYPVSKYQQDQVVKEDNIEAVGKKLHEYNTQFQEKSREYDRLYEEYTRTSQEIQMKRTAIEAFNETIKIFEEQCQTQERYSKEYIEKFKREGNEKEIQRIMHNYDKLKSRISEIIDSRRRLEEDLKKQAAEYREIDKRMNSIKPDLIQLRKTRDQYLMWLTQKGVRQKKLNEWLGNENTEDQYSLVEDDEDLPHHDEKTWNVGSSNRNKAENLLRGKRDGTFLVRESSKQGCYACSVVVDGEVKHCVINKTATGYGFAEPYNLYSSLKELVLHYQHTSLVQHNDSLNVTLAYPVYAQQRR
T3 sequence (P00519 whole entry): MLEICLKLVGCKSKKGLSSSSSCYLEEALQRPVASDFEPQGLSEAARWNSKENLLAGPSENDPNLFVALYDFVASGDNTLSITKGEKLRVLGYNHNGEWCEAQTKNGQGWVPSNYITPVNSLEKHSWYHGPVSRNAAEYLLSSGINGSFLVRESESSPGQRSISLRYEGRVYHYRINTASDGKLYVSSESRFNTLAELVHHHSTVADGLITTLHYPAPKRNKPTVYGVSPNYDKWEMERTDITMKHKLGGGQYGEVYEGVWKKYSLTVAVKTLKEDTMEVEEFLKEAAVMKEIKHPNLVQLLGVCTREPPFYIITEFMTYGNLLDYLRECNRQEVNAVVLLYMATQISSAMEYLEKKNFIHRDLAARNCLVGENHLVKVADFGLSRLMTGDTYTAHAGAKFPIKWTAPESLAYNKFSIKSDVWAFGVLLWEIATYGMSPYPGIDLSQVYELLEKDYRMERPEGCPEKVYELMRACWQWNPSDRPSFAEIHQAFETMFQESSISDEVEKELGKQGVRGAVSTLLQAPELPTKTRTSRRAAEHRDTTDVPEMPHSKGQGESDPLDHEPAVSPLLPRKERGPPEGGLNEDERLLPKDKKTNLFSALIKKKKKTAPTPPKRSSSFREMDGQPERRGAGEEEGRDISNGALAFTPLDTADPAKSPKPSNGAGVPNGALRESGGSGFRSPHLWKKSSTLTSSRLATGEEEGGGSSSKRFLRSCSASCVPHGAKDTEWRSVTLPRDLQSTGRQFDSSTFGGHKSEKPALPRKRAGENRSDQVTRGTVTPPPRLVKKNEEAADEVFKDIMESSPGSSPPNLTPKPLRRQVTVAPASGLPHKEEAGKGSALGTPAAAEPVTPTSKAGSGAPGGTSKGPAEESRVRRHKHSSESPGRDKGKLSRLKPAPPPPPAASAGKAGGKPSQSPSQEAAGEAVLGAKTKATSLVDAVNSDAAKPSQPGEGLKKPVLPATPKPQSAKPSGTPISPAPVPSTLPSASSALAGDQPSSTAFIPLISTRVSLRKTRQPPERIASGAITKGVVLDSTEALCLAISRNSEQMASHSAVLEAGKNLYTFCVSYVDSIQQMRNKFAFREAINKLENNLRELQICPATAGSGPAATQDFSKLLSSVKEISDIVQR
T1 sequence (P42336 whole entry): as the sequence (P42336 whole entry E542K) above, with K542E counted along it
T1 sequence (P27986 whole entry partner): as the sequence (P27986 whole entry partner) above

Structure (SMILES) | remaining activity at 1 µM [1] [%] | remaining activity at 1 µM [2] [%] | remaining activity at 1 µM [3] [%] | remaining activity at 1 µM [4] [%] | remaining activity at 1 µM [5] [%] | remaining activity at 1 µM [6] [%]
CNC(=O)c1ccc(Nc2ncc(C(F)(F)F)c(NCc3nccnc3N(C)S(C)(=O)=O)n2)cc1 [VS-6063, Defactinib] | 103 | 94 | 57 | 21 | 104 | 98
CONC(=O)c1ccccc1Nc1cc(Nc2cc(C)nn2C(C)C)ncc1Cl [GSK2256098] | 83 | 138 | 99 | 92 | 97 | 112
CNC(=O)c1cccc(C)c1Nc1nc(Nc2ccc(N3CCN(C4C5CC6CC4CC(O)(C6)C5)CC3)cc2OC)ncc1C(F)(F)F (stereo not drawn) [SJP1602, 2-((2-((4-(4-((2s,5r)-5-hydroxyadamantan-2-yl)piperazin-1-yl)-2-methoxyphenyl)amino)-5-(trifluoromethyl)pyrimidin-4-yl)amino)-N,3-dimethylbenzamide] | 104 | 102 | 76 | 90 | 101 | 103
